This is an account of results in patent US20140357860A1, “SALT OF IVABRADINE WITH ADIPIC ACID” (ratiopharm GmbH, priority 2010, published 2014).

Structures can show the parent of a compound that is named as a salt.

Data set [1] can be described thus: Stability of the solid form on storage at different temperatures and humidities, open or closed containers. Format: physicochemical. The note with it: for Stability, summary in words: various conditions of temperature, humidity and container. The source says: The stability of ivabradine adipate in comparison to ivabradine hydrochloride form I was investigated at different temperatures and humidities in open or closed containers for different storage times.

The conditions of data set [2]: under physiological conditions; cited from earlier work.

Regarding `COc1cc2c(cc1OC)CC(=O)N(CCCN(C)C[C@H]1Cc3cc(OC)c(OC)cc31)CC2` [Ivabradine HCl form I, Ivabradine HCl], the “Stability (solid form after storage)” value is given as “unchanged” in data set [1] (25° C./60% closed, 33 d); “β + unident” in data set [1] (25° C./60% open, 33 d); “unchanged” in data set [1] (30° C./65% closed, 33 d); “β” in data set [1] (30° C./65% open, 33 d); “unchanged” in data set [1] (40° C./75% closed, 33 d); “β” in data set [1] (40° C./75% open, 33 d). Also, the “Stability, summary in words” value in data set [1] (HCl) is “undergoes phase transition into Ivabradine HCl, form beta”.
On to `COc1cc2c(cc1OC)CC(=O)N(CCCN(C)C[C@H]1Cc3cc(OC)c(OC)cc31)CC2` [Ivabradine, (S)-3-{3-[(3,4-dimethoxybicyclo[4.2.0]octa-1,3,5-trien-7-ylmethyl)methylamino]propyl}-7,8-dimethoxy-2,3,4,5-tetrahydro-1H-3-benzazepin-2-one], for which the water solubility in data set [2] is greater than 10000 µg/mL.
`COc1cc2c(cc1OC)CC(=O)N(CCCN(C)C[C@H]1Cc3cc(OC)c(OC)cc31)CC2` [Ivabradine adipate, Ivabradine Adipate]: the “Stability (solid form after storage)” value is given as “unchanged” in data set [1] (25° C./60% closed, 57 d); “unchanged” in data set [1] (25° C./60% open, 57 d); “unchanged” in data set [1] (30° C./65% closed, 57 d); “unchanged” in data set [1] (30° C./65% open, 57 d); “unchanged” in data set [1] (40° C./75% closed, 57 d); “unchanged” in data set [1] (40° C./75% open, 57 d). Further, the “Stability, summary in words” value in data set [1] is “stable”.
